Experimental data: ChEMBL document CHEMBL1152102, “6-Phenyl-6-alkylamido-5,6-dihydro-2H-pyran-2-ones: novel HIV protease inhibitors” (Bioorg Med Chem Lett, 1996)

Biological target: Human immunodeficiency virus type 1 protease (Human immunodeficiency virus 1, UniProt Q72874)
Assay: In vitro inhibitory activity against purified HIV-1 protease at a pH of 4.7 and a final enzyme concentration of 0.45-1.1 nM

SMILES | IC50
CC(C)c1ccccc1SC1=C(O)OC(CCCC(=O)N(C)Cc2ccccc2)(c2ccccc2)CC1=O (stereo not given) | 676 nM
CC(C)c1ccccc1SC1=C(O)OC(CCCC(=O)Nc2ccccc2)(c2ccccc2)CC1=O (stereo not given) | 429 nM
CC(C)c1ccccc1SC1=C(O)OC(CCCC(=O)NCc2ccccc2)(c2ccccc2)CC1=O (stereo not given) | 81 nM
CC(C)c1ccccc1SC1=C(O)OC(CCCCC(=O)NCCc2ccccc2)(c2ccccc2)CC1=O (stereo not given) | 71 nM
CC(C)c1ccccc1SC1=C(O)OC(CCC(=O)N2CCNCC2)(c2ccccc2)CC1=O (stereo not given) | 1110 nM
CC(C)c1ccccc1SC1=C(O)OC(CCCCC(=O)N2CCOCC2)(c2ccccc2)CC1=O (stereo not given) | 195 nM
CC(C)c1ccccc1SC1=C(O)OC(CCCCC(=O)N2CCN(C(=O)OC(C)(C)C)CC2)(c2ccccc2)CC1=O (stereo not given) | 127 nM
CC(C)c1ccccc1SC1=C(O)OC(CCCC(N)=O)(c2ccccc2)CC1=O (stereo not given) | 101 nM
CC(C)c1ccccc1SC1=C(O)OC(CCCC(=O)NCCc2ccccc2)(c2ccccc2)CC1=O (stereo not given) | 146 nM
CC(C)c1ccccc1SC1=C(O)OC(CCCC(=O)N2CCSCC2)(c2ccccc2)CC1=O (stereo not given) | 285 nM
CC(C)c1ccccc1SC1=C(O)OC(CCCCC(=O)N2CCSCC2)(c2ccccc2)CC1=O (stereo not given) | 583 nM
CC(C)c1ccccc1SC1=C(O)OC(CCCC(=O)N2CCOCC2)(c2ccccc2)CC1=O (stereo not given) | 186 nM
CC(C)c1ccccc1SC1=C(O)OC(CCCCC(N)=O)(c2ccccc2)CC1=O (stereo not given) | 92 nM
CCCCCC1(c2ccccc2)CC(=O)C(Sc2ccccc2C(C)C)=C(O)O1 (stereo not given) | 88 nM
CC(C)c1ccccc1SC1=C(O)OC(CCCCC(=O)NCc2ccccc2)(c2ccccc2)CC1=O (stereo not given) | 26 nM
CC(C)c1ccccc1SC1=C(O)OC(CCCC(=O)N2CCN(C(=O)OC(C)(C)C)CC2)(c2ccccc2)CC1=O (stereo not given) | 124 nM
CC(C)c1ccccc1SC1=C(O)OC(CCCCC(=O)O)(c2ccccc2)CC1=O (stereo not given) | 1.8 nM
CC(C)c1ccccc1SC1=C(O)OC(CCCC(=O)N(C)CCc2ccccc2)(c2ccccc2)CC1=O (stereo not given) | 216 nM
CC(C)c1ccccc1SC1=C(O)OC(CCC(=O)N2CCN(C(=O)OC(C)(C)C)CC2)(c2ccccc2)CC1=O (stereo not given) | 1270 nM
CC(C)c1ccccc1SC1=C(O)OC(CCCC(=O)N(C)c2ccccc2)(c2ccccc2)CC1=O (stereo not given) | 624 nM
CC(C)c1ccccc1SC1=C(O)OC(CCC(=O)N2CCOCC2)(c2ccccc2)CC1=O (stereo not given) | 2440 nM
CC(C)c1ccccc1SC1=C(O)OC(CCCC(=O)N2CCNCC2)(c2ccccc2)CC1=O (stereo not given) | 564 nM
CC(C)c1ccccc1SC1=C(O)OC(CCCCC(=O)N2CCNCC2)(c2ccccc2)CC1=O (stereo not given) | 234 nM
CC(C)c1ccccc1SC1=C(O)OC(CCCCC(=O)Nc2ccccc2)(c2ccccc2)CC1=O (stereo not given) | 91 nM
CC(C)c1ccccc1SC1=C(O)OC(CCC(=O)N2CCSCC2)(c2ccccc2)CC1=O (stereo not given) | 1100 nM
